The numbers were not newly measured in patent US10898452B2, “Stable formulation for parenteral administration of Tapentadol” (Gruenenthal GmbH, priority 2016, dated 2021), which cites them from elsewhere.

Structures are written as SMILES.

The conditions of this series: more pronounced at higher pH values.

Turning to `CC[C@@H](c1cccc(O)c1)[C@@H](C)CN(C)C` [Tapentadol, (1R,2R)-3-(3-dimethylamino-1-ethyl-2-methyl-propyl)-phenol], the antimicrobial properties entry is given as “exhibits antimicrobial properties”.
